According to patent US7285556B2, “Thienopyrimidine-based inhibitors of the src family” (Board of Regents, The University of Texas Systems, priority 2000, dated 2007):
Read-outs that look alike come from different tables or passages of the source.

Columns and labels:
Recombinant human Src = biological target: T1, Recombinant human Src (Homo sapiens, UniProt P12931); assay: Src tyrosine kinase activity, poly E4Y and 32P-ATP; type: biochemical
T1 construct: made in house; host or cells: baculovirus-insect cell system
T1 sequence (P12931 whole entry): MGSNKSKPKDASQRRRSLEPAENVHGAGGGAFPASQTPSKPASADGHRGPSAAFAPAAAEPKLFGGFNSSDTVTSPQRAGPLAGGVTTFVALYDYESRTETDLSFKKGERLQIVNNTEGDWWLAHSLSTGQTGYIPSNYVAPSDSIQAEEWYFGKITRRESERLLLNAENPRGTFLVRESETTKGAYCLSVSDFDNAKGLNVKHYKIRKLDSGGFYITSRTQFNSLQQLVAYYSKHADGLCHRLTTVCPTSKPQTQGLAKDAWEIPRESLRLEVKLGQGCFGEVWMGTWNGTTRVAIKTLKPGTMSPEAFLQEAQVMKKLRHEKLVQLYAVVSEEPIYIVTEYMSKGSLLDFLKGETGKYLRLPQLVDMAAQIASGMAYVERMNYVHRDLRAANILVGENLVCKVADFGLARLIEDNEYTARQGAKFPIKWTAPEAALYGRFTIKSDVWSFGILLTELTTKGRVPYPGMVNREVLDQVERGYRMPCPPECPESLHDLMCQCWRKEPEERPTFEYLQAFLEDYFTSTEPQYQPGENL
In short: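 Recombinant GST-Csk (E. coli) or baculovirus-expressed human Src assayed on poly E4Y in 0.15 M EPPS-NaOH pH 8.0, 6 mM MgCl2, 0.2 mM γ32P-ATP, 10% glycerol, 0.1% Triton X-100. Read-out is 32P incorporation into poly E4Y; for ATP variation (0–250 μM), poly E4Y held at 150 μg/ml.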

Csk = biological target: T2, Csk (Homo sapiens, UniProt P41240); assay: Csk tyrosine kinase activity, poly E4Y and 32P-ATP; type: biochemical; details: screening assay, 50 μg/ml poly E4Y, 0.2 mM 32P-ATP
T2 construct: GST (glutathione-S-transferase) (N); made in house; host or cells: E. coli (pGEX vector)
Method: Recombinant human Src was expressed using the baculovirus-insect cell system and purified as published (Budde et al., 1993 and 2000). Recombinant Csk and the FGF receptor (FGFr) were expressed as glutathione-S-transferase fusion proteins using the pGEX expression vector and E. coli, and purified as described (Sun & Budde, 1995).
The tyrosine kinase activity of Src, Csk and FGFr was determined using poly E4Y and ^32P-ATP. Briefly, enzymes were assayed in a reaction mixture consisting of 0.15 M EPPS-NaOH (pH 8.0) with 6 mM MgCl2, 0.2 mM γ^32P-ATP (0.2-0.4 mCi/μmol), 10% glycerol, 0.1% Triton X-100, and poly E4Y. Poly E4Y is a synthetic peptide whose phosphorylation is measured in this assay by the addition of the radioactively labeled phosphate from the ATP (Budde et al., 1995). […] When ATP was varied (0, 50, 100 and 250 μM), poly E4Y was kept constant at 150 μg/ml.

[1] = Table 2, read-out: Src IC50 (especially good inhibitors of Src)
[2] = read-out: IC50 (preferred compounds for treatment of Src family-related disease)

Structure (SMILES)	IC50 (Recombinant human Src; [1]) [µM]	IC50 (Recombinant human Src; [2]) [µM]	IC50 (Csk) [µM]	IC50 (Recombinant human Src; screening assay, 50 μg/ml poly E4Y, 0.2 mM 32P-ATP, read-out: Src IC50) [µM]
Fc1ccc(C=NNc2ncnc3cc(-c4ccccc4)sc23)cc1 [Compound 75, 4-Fluorobenzaldehyde(6-phenylthieno[3,2-d]pyrimidin-4-yl)hydrazone]	≤ 2	< 2	> 144	
Cc1ccc(C=NNc2ncnc3c(C)csc23)s1 [Compound 120, 5-Methyl-2-thiophenecarboxaldehyde(7-methylthieno[3,2-d]pyrimidin-4-yl)hydrazone]	≤ 2	< 2	> 173	
Cc1csc2c(NN=Cc3ccc(C#N)cc3)ncnc12 [Compound 121, 4-Cyanobenzaldehyde(7-methylthieno[3,2-d]pyrimidin-4-yl)hydrazone]	≤ 2	< 2	> 170	
Cc1csc2c(NN=Cc3cccc(C#N)c3)ncnc12 [Compound 122, 3-Cyanobenzaldehyde(7-methylthieno[3,2-d]pyrimidin-4-yl)hydrazone]	≤ 2	< 2	> 170	
COc1cccc(C=NNc2ncnc3c(C)csc23)c1 [Compound 137, 3-Methoxybenzaldehyde(7-methylthieno[3,2-d]pyrimidin-4-yl)hydrazone]	≤ 2	< 2	> 168	
CCOc1cccc(C=NNc2ncnc3c(C)csc23)c1 [Compound 138, 3-Ethoxybenzaldehyde(7-methylthieno[3,2-d]pyrimidin-4-yl)hydrazone]	≤ 2	< 2	> 160	
Brc1csc2c(NN=Cc3cccnc3)ncnc12 [Compound 180, 3-Pyridinecarboxaldehyde(7-bromothieno[3,2-d]pyrimidin-4-yl)hydrazone]	≤ 2	< 2	> 150	
C(=NNc1ncnc2c(-c3ccsc3)csc12)c1cccnc1 [Compound 209]			> 148	> 148
Brc1cc2ncnc(NN=Cc3cccnc3)c2s1 [Compound 221, 3-Pyridinecarboxaldehyde(6-bromothieno[3,2-d]pyrimidin-4-yl)hydrazone]	≤ 2	< 2	> 150	
C(=NNc1ncnc2c1sc1ncccc12)c1cccs1 [Compound 244, 2-Thiophenecarboxaldehyde(pyrido[3′,2′:4,5]thieno[3,2-d]pyrimidin-4-yl)hydrazone]	≤ 2	< 2	> 161	
COc1ccc(C=NNc2ncnc3c2sc2ncccc23)cc1O [Compound 247, 3-Hydroxy-4-methoxybenzaldehyde(pyrido[3′,2′:4,5]thieno[3,2-d]pyrimidin-4-yl)hydrazone]	≤ 2	< 2	> 142	
C(=NNc1ncnc2cc(-c3ccccc3)sc12)c1ccncc1 [Compound 252, 4-Pyridinecarboxaldehyde(6-phenylthieno[3,2-d]pyrimidin-4-yl)hydrazone]	≤ 2	< 2	> 151	
CCc1csc2c(NN=Cc3cccnc3)ncnc12 [Compound 257, 3-Pyridinecarboxaldehyde(7-ethylthieno[3,2-d]pyrimidin-4-yl)hydrazone]	≤ 2	< 2	> 176	
CCCc1csc2c(NN=Cc3cccnc3)ncnc12 [Compound 264, 3-Pyridinecarboxaldehyde(7-propylthieno[3,2-d]pyrimidin-4-yl)hydrazone]	≤ 2	< 2	> 168	
Fc1ccc(-c2cc3ncnc(NN=Cc4cccnc4)c3s2)cc1 [Compound 278, 3-Pyridinecarboxaldehyde(6-(4-fluorophenyl)thieno[3,2-d]pyrimidin-4-yl)hydrazone]	≤ 2	< 2	> 143	

Now from value to molecule:

IC50 (Recombinant human Src; [1]) [µM]	IC50 (Recombinant human Src; [2]) [µM]	IC50 (Csk) [µM]	IC50 (Recombinant human Src; screening assay, 50 μg/ml poly E4Y, 0.2 mM 32P-ATP, read-out: Src IC50) [µM]	Structure (SMILES)
≤ 2	< 2	> 122		CS(=O)(=O)c1ccc(-c2cc3ncnc(NN=Cc4cccnc4)c3s2)cc1 [Compound 290, 3-Pyridinecarboxaldehyde(6-(4-methanesulphonylphenyl)thieno-[3,2-d]pyrimidin-4-yl)hydrazone]
≤ 2	< 2	> 122		O=C(O)c1ccc(C=NNc2ncnc3cc(-c4ccc(Cl)cc4)sc23)cc1 [Compound 309, 4-Carboxybenzaldehyde(6-(4-chlorophenyl)thieno[3,2-d]pyrimidin-4-yl)hydrazone]
≤ 2	< 2	> 137		Clc1ccccc1-c1cc2ncnc(NN=Cc3cccnc3)c2s1 [Compound 317, 3-Pyridinecarboxaldehyde(6-(2-chlorophenyl)thieno[3,2-d]pyrimidin-4-yl)hydrazone]
≤ 2	< 2	> 135		Clc1ccccc1-c1cc2ncnc(NN=Cc3cccs3)c2s1 [Compound 320, 2-Thiophenecarboxaldehyde(6-(2-chlorophenyl)thieno[3,2-d]pyrimidin-4-yl)hydrazone]
≤ 2	< 2	> 143		Cc1c(-c2ccccc2)sc2c(NN=Cc3cccs3)ncnc12 [Compound 361, 2-Thiophenecarboxaldehyde(7-methyl-6-phenylthieno[3,2-d]pyrimidin-4-yl)hydrazone]
≤ 2	< 2	> 128		COc1ccc(C=NNc2ncnc3c(C)c(-c4ccccc4)sc23)cc1O [Compound 362, 3-Hydroxy-4-methoxybenzaldehyde(7-methyl-6-phenylthieno[3,2-d]pyrimidin-4-yl)hydrazone]
≤ 2	< 2	> 127		Cc1c(I)sc2c(NN=Cc3cccnc3)ncnc12 [Compound 372, 3-Pyridinecarboxaldehyde(6-iodo-7-methylthieno[3,2-d]pyrimidin-4-yl)hydrazone]
≤ 2	< 2	> 114		COc1ccc(C=NNc2ncnc3c(C)c(I)sc23)cc1O [Compound 375, 3-Hydroxy-4-methoxybenzaldehyde(6-iodo-7-methylthieno[3,2-d]pyrimidin-4-yl)hydrazone]
≤ 2	< 2	> 142		Cc1c(-c2ccsc2)sc2c(NN=Cc3cccnc3)ncnc12 [Compound 379, 3-Pyridinecarboxaldehyde(7-methyl-6-(3-thienyl)thieno[3,2-d]pyrimidin-4-yl)hydrazone]
≤ 2	< 2	> 140		Cc1c(-c2ccsc2)sc2c(NN=Cc3cccs3)ncnc12 [Compound 381, 2-Thiopnhenecarboxaldehyde(7-methyl-6-(3-thienyl)thieno[3,2-d]pyrimidin-4-yl)hydrazone]
≤ 2	< 2	> 132		Cc1c(-c2ccccc2Cl)sc2c(NN=Cc3cccnc3)ncnc12 [Compound 389, 3-Pyridinecarboxaldehyde(6-(2-chlorophenyl)7-methylthieno[3,2-d]pyrimidin-4-yl)hydrazone]
≤ 2	< 2	> 130		Cc1c(-c2ccccc2Cl)sc2c(NN=Cc3cccs3)ncnc12 [Compound 391, 2-Thiophenecarboxaldehyde(6-(2-chlorophenyl)7-methylthieno[3,2-d]pyrimidin-4-yl)hydrazone]
≤ 2	< 2	> 131		Ic1cc2ncnc(NN=Cc3cccnc3)c2s1 [Compound 394, 3-Pyridinecarboxaldehyde(6-iodothieno[3,2-d]pyrimidin-4-yl)hydrazone]
